# Measured values reported in patent US20230416225A1, “DIAMINOPYRIMIDINE CARBOXAMIDE INHIBITORS OF HPK1” (MERCK SHARP & DOHME LLC, priority 2020, published 2023).
# Target: T1, Human HPK1, catalytic domain (Homo sapiens, UniProt Q92918)
# T1 construct: purchased Carna
# T1 sequence (Q92918 1-346): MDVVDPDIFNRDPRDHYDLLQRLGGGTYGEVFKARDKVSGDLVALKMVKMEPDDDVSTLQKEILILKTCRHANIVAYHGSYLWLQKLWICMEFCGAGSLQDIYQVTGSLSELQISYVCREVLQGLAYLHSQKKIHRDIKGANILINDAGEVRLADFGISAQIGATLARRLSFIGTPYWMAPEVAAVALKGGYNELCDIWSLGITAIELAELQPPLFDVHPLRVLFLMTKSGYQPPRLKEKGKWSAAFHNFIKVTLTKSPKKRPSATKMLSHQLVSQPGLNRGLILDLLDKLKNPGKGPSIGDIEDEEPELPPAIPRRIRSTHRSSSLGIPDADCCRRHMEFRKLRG
# Experiment: HPK1-SLP76 TR-FRET assay
# Type: biochemical
# Conditions: 75 pM HPK1, 10 uM ATP, 10 nM SLP76, 30 min compound pre-incubation
row,SMILES,IC50 [nM]
1,"COc1cc2c(cc1Nc1ncc(C(N)=O)c(Nc3ccccc3Br)n1)CN(C(C)=O)CC2 [Example 12-2, 2-[(2-acetyl-6-methoxy-1,2,3,4-tetrahydroisoquinolin-7-yl)amino]-4-[(2-bromophenyl)amino]pyrimidine-5-carboxamide]",244
2,"COc1cc2c(cc1Nc1ncc(C(N)=O)c(Nc3ccccc3OC(C)C)n1)CN(C)CC2 [Example 7-111, 2-[(6-methoxy-2-methyl-1,2,3,4-tetrahydroisoquinolin-7-yl)amino]-4-({2-[(propan-2-yl)oxy]phenyl}amino)pyrimidine-5-carboxamide]",0.26
3,"COc1cc2c(cc1Nc1ncc(C(N)=O)c(Nc3ccccc3OC(F)F)n1)CN(C)CC2 [Example 7-114, 4-{[2-(difluoromethoxy)phenyl]amino}-2-[(6-methoxy-2-methyl-1,2,3,4-tetrahydroisoquinolin-7-yl)amino]pyrimidine-5-carboxamide]",0.09
4,"NC(=O)c1cnc(Nc2cc3n(n2)CCC3)nc1Nc1cccc2c1CCNC2=O [Example 7-58, 2-[(5,6-dihydro-4H-pyrrolo[1,2-b]pyrazol-2-yl)amino]-4-[(1-oxo-1,2,3,4-tetrahydroisoquinolin-5-yl)amino]pyrimidine-5-carboxamide]",3.65
5,"COc1cc2c(cc1Nc1ncc(C(N)=O)c(Nc3cccc(CN(C)CC(=O)O)c3)n1)CN(C)CC2 [Example 7-34, N-{[3-({5-carbamoyl-2-[(6-methoxy-2-methyl-1,2,3,4-tetrahydroisoquinolin-7-yl)amino]pyrimidin-4-yl}amino)phenyl]methyl}-N-methylglycine]",2.43
6,"COc1cc2c(cc1Nc1ncc(C(N)=O)c(Nc3ccccc3Br)n1)CN(C(=O)CC(F)(F)F)CC2 [Example 12-11, 4-[(2-bromophenyl)amino]-2-{[6-methoxy-2-(3,3,3-trifluoropropanoyl)-1,2,3,4-tetrahydroisoquinolin-7-yl]amino}pyrimidine-5-carboxamide]",11.1
7,"COc1cc2c(cc1Nc1ncc(C(N)=O)c(Nc3ccccc3C(O)(C(F)(F)F)C(F)(F)F)n1)CN(C)CC2 [Example 7-97, 4-{[2-(1,1,1,3,3,3-hexafluoro-2-hydroxypropan-2-yl)phenyl]amino}-2-[(6-methoxy-2-methyl-1,2,3,4-tetrahydroisoquinolin-7-yl)amino]pyrimidine-5-carboxamide]",0.23
8,"COc1cc2c(cc1Nc1ncc(C(N)=O)c(Nc3ccccc3SC(F)(F)F)n1)CN(C)CC2 [Example 7-113, 2-[(6-methoxy-2-methyl-1,2,3,4-tetrahydroisoquinolin-7-yl)amino]-4-({2-[(trifluoromethyl)sulfanyl]phenyl}amino)pyrimidine-5-carobxamide]",0.13
9,"COc1cc2c(cc1Nc1ncc(C(N)=O)c(Nc3ccccc3CC3(C#N)CC3)n1)CN(C)CC2 [Example 13-8, 4-({2-[(1-cyanocyclopropyl)methyl]phenyl}amino)-2-[(6-methoxy-2-methyl-1,2,3,4-tetrahydroisoquinolin-7-yl)amino]pyrimidine-5-carboxamide]",230
10,"COc1cc(F)c(Nc2nc(Nc3cc4c(cc3OC)CCN(C)C4)ncc2C(N)=O)c(F)c1 [Example 4-15, 4-[(2,6-difluoro-4-methoxyphenyl)amino]-2-[(6-methoxy-2-methyl-1,2,3,4-tetrahydroisoquinolin-7-yl)amino]pyrimidine-5-carboxamide]",0.53
11,"NC(=O)c1cnc(Nc2cnn(CC(F)(F)F)c2)nc1Nc1cccc2c1CCNC2=O [Example 7-45, 4-[(1-oxo-1,2,3,4-tetrahydroisoquinolin-5-yl)amino]-2-{[1-(2,2,2-trifluoroethyl)-1H-pyrazol-4-yl]amino}pyrimidine-5-carboxamide]",19.5
12,CCc1ccccc1Nc1nc(Nc2cc3c(cc2OC)CCN(C)C3)ncc1C(N)=O [Example 4-27],0.08
13,"COc1cc2c(cc1Nc1ncc(C(N)=O)c(Nc3c(Cl)ccc(C)c3F)n1)CN(C)CC2 [Example 4-20, 4-[(6-chloro-2-fluoro-3-methylphenyl)amino]-2-[(6-methoxy-2-methyl-1,2,3,4-tetrahydroisoquinolin-7-yl)amino]pyrimidine-5-carboxamide]",0.21
14,"COc1cc2c(cc1Nc1ncc(C(N)=O)c(Nc3ccccc3C#N)n1)CN(C)CC2 [Example 7-49, 4-[(2-cyanophenyl)amino]-2-[(6-methoxy-2-methyl-1,2,3,4-tetrahydroisoquinolin-7-yl)amino]pyrimidine-5-carboxamide]",0.34
15,"COc1cc2c(cc1Nc1ncc(C(N)=O)c(Nc3c4c(nn3C)CCC4)n1)CN(C)CC2 [Example 7-84, 2-((6-methoxy-2-methyl-1,2,3,4-tetrahydroisoquinolin-7-yl)amino)-4-((2-methyl-2,4,5,6-tetrahydrocyclopenta[c]pyrazol-3-yl)amino)pyrimidine-5-carboxamide]",5.66

# Continued, values first:
row,IC50 [nM],SMILES
1,0.72,"Cc1cc(Nc2ncc(C(N)=O)c(Nc3cccc4c3CCNC4=O)n2)ccc1F [Example 25-30, 2-[(4-fluoro-3-methylphenyl)amino]-4-[(1-oxo-1,2,3,4-tetrahydroisoquinolin-5-yl)amino]pyrimidine-5-carboxamide]"
2,48.3,"COc1cc2c(cc1Nc1ncc(C(N)=O)c(NCc3ccc(C#N)cc3)n1)CN(C)CC2 [Example 26-59, 4-{[(4-cyanophenyl)methyl]amino}-2-[(6-methoxy-2-methyl-1,2,3,4-tetrahydroisoquinolin-7-yl)amino]pyrimidine-5-carboxamide]"
3,0.45,"COc1cc2c(cc1Nc1ncc(C(N)=O)c(N[C@H](C)c3cccc(F)c3F)n1)CN(C)CC2 [Example 26-20, 4-{[(1R)-1-(2,3-difluorophenyl)ethyl]amino}-2-[(6-methoxy-2-methyl-1,2,3,4-tetrahydroisoquinolin-7-yl)amino]pyrimidine-5-carboxamide]"
4,4.89,"COc1cc2c(cc1Nc1ncc(C(N)=O)c(NCc3nccs3)n1)CN(C)CC2 [Example 26-60, 2-[(6-methoxy-2-methyl-1,2,3,4-tetrahydroisoquinolin-7-yl)amino]-4-{[(1,3-thiazol-2-yl)methyl]amino}pyrimidine-5-carboxamide]"
5,404,"NC(=O)c1cnc(NCc2ccc(C(F)(F)F)cc2)nc1Nc1cccc2c1CCNC2=O [Example 25-38, 4-[(1-oxo-1,2,3,4-tetrahydroisoquinolin-5-yl)amino]-2-({[4-(trifluoromethyl)phenyl]methyl}amino)pyrimidine-5-carboxamide]"
6,0.95,"COc1cc2c(cc1Nc1ncc(C(N)=O)c(NCc3cccc(F)c3F)n1)CN(C)CC2 [Example 26-9, 4-{[(2,3-difluorophenyl)methyl]amino}-2-[(6-methoxy-2-methyl-1,2,3,4-tetrahydroisoquinolin-7-yl)amino]pyrimidine-5-carboxamide]"
7,3.01,"COc1cc2c(cc1Nc1ncc(C(N)=O)c(N[C@H]3CCCc4cc(F)ccc43)n1)CN(C)CC2 [Example 26-47, 4-{[(1S)-6-fluoro-1,2,3,4-tetrahydronaphthalen-1-yl]amino}-2-[(6-methoxy-2-methyl-1,2,3,4-tetrahydroisoquinolin-7-yl)amino]pyrimidine-5-carboxamide]"
8,9.66,"COc1cc2c(cc1Nc1ncc(C(N)=O)c(NC3CCc4cccc(OC)c43)n1)CN(C)CC2 (stereo not drawn) [Example 26-34, 4-[(7-methoxy-2,3-dihydro-1H-inden-1-yl)amino]-2-[(6-methoxy-2-methyl-1,2,3,4-tetrahydroisoquinolin-7-yl)amino]pyrimidine-5-carboxamide]"
9,0.14,"COc1cc2c(cc1Nc1ncc(C(N)=O)c(NC3C[C@@H]4CC[C@H]3C4)n1)CN(C)CC2 (stereo partly drawn) [Example 26-14, 4-{[(1S,4R)-bicyclo[2.2.1]heptan-2-yl]amino}-2-[(6-methoxy-2-methyl-1,2,3,4-tetrahydroisoquinolin-7-yl)amino]pyrimidine-5-carboxamide]"
10,38.7,"COc1c(F)cc(Nc2ncc(C(N)=O)c(Nc3cccc4c3CCNC4=O)n2)cc1F [Example 25-40, 2-[(3,5-difluoro-4-methoxyphenyl)amino]-4-[(1-oxo-1,2,3,4-tetrahydroisoquinolin-5-yl)amino]pyrimidine-5-carboxamide]"
11,205,"COc1cc2c(cc1Nc1ncc(C(N)=O)c(N[C@@H]3CCCC[C@H]3C(C)(C)O)n1)CN(C)CC2 [Example 26-42, 4-{[(1R,2R)-2-(2-hydroxypropan-2-yl)cyclohexyl]amino}-2-[(6-methoxy-2-methyl-1,2,3,4-tetrahydroisoquinolin-7-yl)amino]pyrimidine-5-carboxamide]"
12,2.75,"COc1cc2c(cc1Nc1ncc(C(N)=O)c(Nc3ccccc3-c3cncs3)n1)CN(C)CC2 [Example 14-1, 2-[(6-methoxy-2-methyl-1,2,3,4-tetrahydroisoquinolin-7-yl)amino]-4-{[2-(1,3-thiazol-5-yl)phenyl]amino}pyrimidine-5-carboxamide]"
13,0.28,"COc1cc2c(cc1Nc1ncc(C(N)=O)c(Nc3ccccc3C(F)(F)F)n1)CN(C)C(C)C2 (racemic) [Example 23-3, (RAC)-2-((6-methoxy-2,3-dimethyl-1,2,3,4-tetrahydroisoquinolin-7-yl)amino)-4-((2-(trifluoromethyl)phenyl)amino)pyrimidine-5-carboxamide]"
14,187,"COc1ccc(Cl)cc1Nc1ncc(C(N)=O)c(Nc2cccc3c2CCNC3=O)n1 [Example 25-33, 2-[(5-chloro-2-methoxyphenyl)amino]-4-[(1-oxo-1,2,3,4-tetrahydroisoquinolin-5-yl)amino]pyrimidine-5-carboxamide]"
15,23.6,"COc1cc2c(cc1Nc1ncc(C(=O)NN)c(Nc3ccccc3)n1)CN(C)CC2 [Example 18-1, 2-((6-Methoxy-2-methyl-1,2,3,4-tetrahydroisoquinolin-7-yl)amino)-4-(phenylamino)pyrimidine-5-carbohydrazide]"
